Marks after values point to notes of the source that are not given here.
Assays:
[1] = 28-day rat study, plasma metabolite profiling: markers for Energy metabolism decreased; assay type: in vivo; details: for 3-Hydroxybutyrate, treatment ratio versus control / Citrate, treatment ratio versus control / Pyruvate, treatment ratio versus control / Succinate, treatment ratio versus control: male rats, plasma; for capability of inducing impaired energy metabolism: statement in words
Text: Drinking water was also offered ad libitum.
The samples were centrifuged for generation of plasma.

[2] = 28-day rat study, plasma metabolite profiling: markers for Duodenum iron deficiency; details: for Cholic acid, treatment ratio versus control / Choline plasmalogen (C18,C20:4), treatment ratio versus control / Citrate, treatment ratio versus control / Creatinine, treatment ratio versus control / DAG (C18:1,C18:2), treatment ratio versus control / Hippuric acid, treatment ratio versus control / Indole-3-propionic acid, treatment ratio versus control / Methionine, treatment ratio versus control / Proline, treatment ratio versus control / Serine, treatment ratio versus control / TAG (C16:0,C18:1,C18:3), treatment ratio versus control / TAG (C18:1,C18:2), treatment ratio versus control / TAG (C18:2,C18:2), treatment ratio versus control / TAG (C18:2,C18:3), treatment ratio versus control / TAG (DAG-Fragment), treatment ratio versus control / TAG No 02, treatment ratio versus control / TAG No 07, treatment ratio versus control / Threonine, treatment ratio versus control / alpha-Tocopherol, treatment ratio versus control / Alanine, treatment ratio versus control / Campesterol, treatment ratio versus control / Glutamate, treatment ratio versus control / Glutamine, treatment ratio versus control / Lysophosphatidylcholine (C20:4), treatment ratio versus control / Malate, treatment ratio versus control / Ornithine, treatment ratio versus control / Phosphatidylcholine (C18:0, C22:6), treatment ratio versus control / Threonic acid, treatment ratio versus control: plasma;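 also: rats given the compounds once a day across 28 days, plasma from fasted animals profiled by GC-MS and LC-MS, separate control groups of five rats per sex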
Experimental: A group of each 5 male and female rats was dosed once daily with the indicated compounds (see Table 4, below for compounds, applied doses and administration details) over 28 days.
Each dose group in the studies consisted of five rats per sex. Additional groups of each 5 male and female animals served as controls. Before starting the treatment period, animals, which were 62-64 days old when supplied, were acclimatized to the housing and environmental conditions for 7 days. All animals of the animal population were kept under the same constant temperature (20-24±3° C.) and the same constant humidity (30-70%). The animals of the animal population were fed ad libitum. The food to be used was essentially free of chemical or microbial contaminants. Drinking water was also offered ad libitum. Accordingly, the water was free of chemical and microbial contaminants as laid down in the European Drinking Water Directive 98/83/EG. The illumination period was 12 hours light followed by 12 hours darkness (12 hours light, from 6:00 to 18:00, and 12 hours darkness, from 18:00 to 6:00). The studies were performed in an AAALAC-approved laboratory in accordance with the German Animal Welfare Act and the European Council Directive 86/609/EE. The test system was arranged according to the OECD 407 guideline for the testing of chemicals for repeated dose 28-day oral toxicity study in rodents.
In the morning of day 7, 14, and 28, blood was taken from the retroorbital venous plexus from fasted anaesthetized animals. From each animal, 1 ml of blood was collected with EDTA as anticoagulant. The samples were centrifuged for generation of plasma. All plasma samples were covered with a N2 atmosphere and then stored at −80° C. until analysis.
For mass spectrometry-based metabolite profiling analyses plasma samples were extracted and a polar and a non-polar (lipid) fraction was obtained. For GC-MS analysis, the non-polar fraction was treated with methanol under acidic conditions to yield the fatty acid methyl esters. Both fractions were further derivatised with O-methyl-hydroxyamine hydrochloride and pyridine to convert Oxo-groups to O-methyloximes and subsequently with a silylating agent before analysis. In LC-MS analysis, both fractions were reconstituted in appropriate solvent mixtures. HPLC was performed by gradient elution on reversed phase separation columns.
Steroids and their metabolites were measured by online SPE-LC-MS (Solid phase extraction-LC-MS).
Following comprehensive analytical validation steps, the data for each analyte were normalized against data from pool samples. These samples were run in parallel through the whole process to account for process variability. The significance of treatment group values specific for sex, treatment duration and metabolite was determined by comparing means of the treated groups to the means of the respective untreated control groups using WELCH-test and quantified with treatment ratios versus control and p-values.

## COCCO [2-Methoxyethanol]
[1]; day 7
  3-Hydroxybutyrate, treatment ratio versus control: 0.45*
  Citrate, treatment ratio versus control: 0.7*
  Pyruvate, treatment ratio versus control: 0.63*
  Succinate, treatment ratio versus control: 0.91
[1]; day 14
  3-Hydroxybutyrate, treatment ratio versus control: 0.24*
  Citrate, treatment ratio versus control: 0.39*
  Pyruvate, treatment ratio versus control: 0.66*
  Succinate, treatment ratio versus control: 0.99
[1]
  capability of inducing impaired energy metabolism: capable of inducing impaired energy metabolism

## CNC(=O)/C(=N/OC)c1ccccc1CO/N=C(C)/C(=N/OC)C(/C)=N/OC [Orysastrobin, (2E)-2-(methoxyimino)-2-{2-[(3E,5E,6E)-5-(methoxyimino)-4,6-dimethyl-2,8-dioxa-3,7-diazanona-3,6-dien-1-yl]phenyl}-N-methylacetamide]
[2]; female rats, day 7
  Cholic acid, treatment ratio versus control: 15.95
  Choline plasmalogen (C18,C20:4), treatment ratio versus control: 1.18*
  Citrate, treatment ratio versus control: 1.24*
  Creatinine, treatment ratio versus control: 0.9
  DAG (C18:1,C18:2), treatment ratio versus control: 2.21*
  Hippuric acid, treatment ratio versus control: 0.91
  Indole-3-propionic acid, treatment ratio versus control: 0.54
  Methionine, treatment ratio versus control: 1.33*
  Proline, treatment ratio versus control: 1.03
  Serine, treatment ratio versus control: 1.32*
  TAG (C16:0,C18:1,C18:3), treatment ratio versus control: 1.02
  TAG (C18:1,C18:2), treatment ratio versus control: 1.34*
  TAG (C18:2,C18:2), treatment ratio versus control: 1.63*
  TAG (C18:2,C18:3), treatment ratio versus control: 1.37*
  TAG (DAG-Fragment), treatment ratio versus control: 1.62*
  TAG No 02, treatment ratio versus control: 1
  TAG No 07, treatment ratio versus control: 1.19
  Threonine, treatment ratio versus control: 1.83*
  alpha-Tocopherol, treatment ratio versus control: 1.27*
[2]; female rats, day 14
  Cholic acid, treatment ratio versus control: 2.8*
  Choline plasmalogen (C18,C20:4), treatment ratio versus control: 1.13*
  Citrate, treatment ratio versus control: 1.04
  Creatinine, treatment ratio versus control: 1.08
  DAG (C18:1,C18:2), treatment ratio versus control: 2.83*
  Hippuric acid, treatment ratio versus control: 1.04
  Indole-3-propionic acid, treatment ratio versus control: 0.73
  Methionine, treatment ratio versus control: 1.12*
  Proline, treatment ratio versus control: 1.08*
  Serine, treatment ratio versus control: 1.26*
  TAG (C16:0,C18:1,C18:3), treatment ratio versus control: 2.42*
  TAG (C18:1,C18:2), treatment ratio versus control: 2.28*
  TAG (C18:2,C18:2), treatment ratio versus control: 3.02*
  TAG (C18:2,C18:3), treatment ratio versus control: 1.94*
  TAG (DAG-Fragment), treatment ratio versus control: 3.03*
  TAG No 02, treatment ratio versus control: 0.84*
  TAG No 07, treatment ratio versus control: 1.99*
  Threonine, treatment ratio versus control: 1.83*
  alpha-Tocopherol, treatment ratio versus control: 1.24*
[2]; female rats, day 28
  Cholic acid, treatment ratio versus control: 5.13*
  Choline plasmalogen (C18,C20:4), treatment ratio versus control: 1.26*
  Citrate, treatment ratio versus control: 1.08*
  Creatinine, treatment ratio versus control: 0.84
  DAG (C18:1,C18:2), treatment ratio versus control: 3.11*
  Hippuric acid, treatment ratio versus control: 0.41*
  Indole-3-propionic acid, treatment ratio versus control: 0.64*
  Methionine, treatment ratio versus control: 1.11*
  Proline, treatment ratio versus control: 1.1
  Serine, treatment ratio versus control: 1.16*
  TAG (C16:0,C18:1,C18:3), treatment ratio versus control: 1.86*
  TAG (C18:1,C18:2), treatment ratio versus control: 1.98*
  TAG (C18:2,C18:2), treatment ratio versus control: 1.79*
  TAG (C18:2,C18:3), treatment ratio versus control: 1.63*
  TAG (DAG-Fragment), treatment ratio versus control: 2.22*
  TAG No 02, treatment ratio versus control: 1.02
  TAG No 07, treatment ratio versus control: 1.5
  Threonine, treatment ratio versus control: 1.58*
  alpha-Tocopherol, treatment ratio versus control: 1.33*
[2]; male rats, day 7
  Alanine, treatment ratio versus control: 1.15*
  Campesterol, treatment ratio versus control: 1.14
  Citrate, treatment ratio versus control: 1.12*
  Creatinine, treatment ratio versus control: 1.04
  Glutamate, treatment ratio versus control: 1.09
  Glutamine, treatment ratio versus control: 0.96
  Hippuric acid, treatment ratio versus control: 0.69
  Lysophosphatidylcholine (C20:4), treatment ratio versus control: 0.86*
  Malate, treatment ratio versus control: 1.17*
  Methionine, treatment ratio versus control: 1.05*
  Ornithine, treatment ratio versus control: 1.28*
  Phosphatidylcholine (C18:0, C22:6), treatment ratio versus control: 1.39*
  Serine, treatment ratio versus control: 1.17*
  Threonic acid, treatment ratio versus control: 2.29*
  Threonine, treatment ratio versus control: 1.28*
[2]; male rats, day 14
  Alanine, treatment ratio versus control: 1.05
  Campesterol, treatment ratio versus control: 1.07
  Citrate, treatment ratio versus control: 1.04
  Creatinine, treatment ratio versus control: 1.03
  Glutamate, treatment ratio versus control: 0.77*
  Glutamine, treatment ratio versus control: 0.81*
  Hippuric acid, treatment ratio versus control: 0.58*
  Lysophosphatidylcholine (C20:4), treatment ratio versus control: 0.77*
  Malate, treatment ratio versus control: 1.08
  Methionine, treatment ratio versus control: 1
  Ornithine, treatment ratio versus control: 1.31*
  Phosphatidylcholine (C18:0, C22:6), treatment ratio versus control: 1.34*
  Serine, treatment ratio versus control: 1.1*
  Threonic acid, treatment ratio versus control: 1.86*
  Threonine, treatment ratio versus control: 1.23
[2]; male rats, day 28
  Alanine, treatment ratio versus control: 1.02
  Campesterol, treatment ratio versus control: 0.49*
  Citrate, treatment ratio versus control: 1.09*
  Creatinine, treatment ratio versus control: 1.16
  Glutamate, treatment ratio versus control: 0.88
  Glutamine, treatment ratio versus control: 0.71*
  Hippuric acid, treatment ratio versus control: 0.48*
  Lysophosphatidylcholine (C20:4), treatment ratio versus control: 0.81*
  Malate, treatment ratio versus control: 1.16
  Methionine, treatment ratio versus control: 1.1*
  Ornithine, treatment ratio versus control: 1.21*
  Phosphatidylcholine (C18:0, C22:6), treatment ratio versus control: 1.19*
  Serine, treatment ratio versus control: 1.26*
  Threonic acid, treatment ratio versus control: 2.17*
  Threonine, treatment ratio versus control: 1.14*
[2]; statement in words
  capability of inducing an iron adsorption disorder: capable of inducing an iron adsorption disorder

## NC(=O)c1ccc(N)nc1 [6-Aminonicotinamide i.p., 6-Aminopyridine-3-carboxamide]
[1]; day 7
  3-Hydroxybutyrate, treatment ratio versus control: 0.31*
  Citrate, treatment ratio versus control: 0.62*
  Pyruvate, treatment ratio versus control: 0.31*
  Succinate, treatment ratio versus control: 0.92*
[1]
  capability of inducing impaired energy metabolism: capable of inducing impaired energy metabolism
